The text below walks through data of PubChem BioAssay AID1918954 (Molecular Pharmacology Branch, DTP, NCI, 2023).

Values joined by “and” are separate entries in the source; they are usually repeats but may differ in a detail not shown here. Equal entries are not always repeated.

This assay concerns MDA-MB-468 complex spheroids with HUVEC/MSC, viability. Put plainly: Anticancer human tumor MDA-MB-468 cell line growth inhibition.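 For all read-outs here: spheroids exposed to agents for seven days.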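 For viability, T/C: 100% = DMSO vehicle control viability.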 Conditions: for viability, T/C: stronger effect = lower value. The method in brief:
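Complex spheroids of tumor cells with HUVEC and human MSCs, exposed to iadademstat combined with other agents. Each agent tested in half-log steps from near clinical Cmax (else 10 microM top), DMSO ≤0.25%.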

Where [1] appears, read: curve of first compound, second compound 0.1 µM.
The mark [2] stands for this setting: curve of first compound, second compound 0.316 µM.
Where [3] appears, read: curve of first compound, second compound 1 µM.
Setting [4] is: curve of first compound, second compound 3.16 µM.
Setting [5] is: curve of first compound, second compound 10 µM.
Where [6] appears, read: second compound 0.1 µM, first compound 0.00949 µM.
Setting [7] is: second compound 0.1 µM, first compound 0.03 µM.
The mark [8] stands for this setting: second compound 0.1 µM, first compound 0.0949 µM.
The mark [9] stands for this setting: second compound 0.1 µM, first compound 0.3 µM.
The mark [10] stands for this setting: second compound 0.316 µM, first compound 0.00949 µM.
The mark [11] stands for this setting: second compound 0.316 µM, first compound 0.03 µM.
[12] abbreviates: second compound 0.316 µM, first compound 0.0949 µM.
Setting [13] is: second compound 0.316 µM, first compound 0.3 µM.
Setting [14] is: second compound 1 µM, first compound 0.00949 µM.
[15] abbreviates: second compound 1 µM, first compound 0.03 µM.
The mark [16] stands for this setting: second compound 1 µM, first compound 0.0949 µM.
Setting [17] is: second compound 1 µM, first compound 0.3 µM.
[18] abbreviates: second compound 3.16 µM, first compound 0.00949 µM.
[19] abbreviates: second compound 3.16 µM, first compound 0.03 µM.
Where [20] appears, read: second compound 3.16 µM, first compound 0.0949 µM.
The mark [21] stands for this setting: second compound 3.16 µM, first compound 0.3 µM.
Where [22] appears, read: second compound 10 µM, first compound 0.00949 µM.
[23] abbreviates: second compound 10 µM, first compound 0.03 µM.
Setting [24] is: second compound 10 µM, first compound 0.0949 µM.
Setting [25] is: second compound 10 µM, first compound 0.3 µM.

What is called IC50 is the concentration at which inhibition is half-maximal. The term viability, T/C denotes the ratio of treated to control.

As to `CCc1c2c(nc3ccc(O)cc13)-c1cc3c(c(=O)n1C2)COC(=O)[C@]3(O)CC` + NC1CCC(NC2CC2c2ccccc2)CC1, the IC50 by setting is: under setting [1], < 0.949 nM; under setting [2], < 0.949 nM; under setting [3], < 0.949 nM; under setting [4], < 0.949 nM; under setting [5], < 0.949 nM. In addition, the viability, T/C (second compound 0.1 µM, first compound 0.000949 µM) is 7.86%; the viability, T/C (second compound 0.1 µM, first compound 0.003 µM) is 7.19%; the viability, T/C under setting [6] is 4.23%; the viability, T/C under setting [7] is 3.08%; the viability, T/C under setting [8] was 2.21%; the viability, T/C under setting [9] is 2.02%. The viability, T/C was 6.84% (second compound 0.316 µM, first compound 0.000949 µM); 5.38% (second compound 0.316 µM, first compound 0.003 µM); 3.66% under setting [10]; 3.28% under setting [11]; 1.33% under setting [12]; 2.06% under setting [13]. Also, the viability, T/C runs as follows: (second compound 1 µM, first compound 0.000949 µM) 6.78%; (second compound 1 µM, first compound 0.003 µM) 6.71%; under setting [14], 4.78%; under setting [15], 2.79%; under setting [16], 1.75%; under setting [17], 2.02%. Besides, the viability, T/C (second compound 3.16 µM, first compound 0.000949 µM) is 7.33%; the viability, T/C (second compound 3.16 µM, first compound 0.003 µM) was 4.42%; the viability, T/C under setting [18] is 4.73%; the viability, T/C under setting [19] was 3.2%; the viability, T/C under setting [20] was 2.84%; the viability, T/C under setting [21] is 1.88%. Besides, the viability, T/C (second compound 10 µM, first compound 0.000949 µM) is 6.82%; the viability, T/C (second compound 10 µM, first compound 0.003 µM) was 5.98%; the viability, T/C under setting [22] is 4.27%; the viability, T/C under setting [23] is 3.39%; the viability, T/C under setting [24] was 2.46%; the viability, T/C under setting [25] was 2.29%.
Turning to `O=C(C=Cc1cccc(S(=O)(=O)Nc2ccccc2)c1)NO`, the viability, T/C runs as follows: (compound 0.00949 µM) 80.6% and 78.8%; (compound 0.03 µM) 72.8% and 67.2%; (compound 0.0949 µM) 44.4% and 25.1%; (compound 0.3 µM) 17.5% and 2.5%; (compound 0.949 µM) 4.34% and 0.22%. The IC50 (curve of compound) was 75.6 nM and 52 nM.
For `CC(C)c1c(-c2ccccc2)nc2c(C#N)c[nH]n2c1=O`, the viability, T/C is 111% and 87.3% (compound 0.0316 µM); 101% and 89.5% (compound 0.1 µM); 91.4% and 78.7% (compound 0.316 µM); 101% and 96.7% (compound 1 µM); 92% and 101% (compound 3.16 µM); 72.1% and 88.9% (compound 10 µM). For the same compound, for the setting “curve of compound”, the IC50 was > 10000 nM.
Take `CCN(c1cc(-c2ccc(CN3CCOCC3)cc2)cc(C(=O)NCc2c(C)cc(C)[nH]c2=O)c1C)C1CCOCC1` + NC1CC1c1ccc(-c2cccc(O)c2)cc1: the IC50 under setting [1] stood at 219 nM; the IC50 under setting [2] is 214 nM; the IC50 under setting [3] worked out at 171 nM; the IC50 under setting [4] worked out at 171 nM; the half-inhibitory concentration (IC50) under setting [5] is 69.1 nM. The viability, T/C was 98.8% under setting [6]; 89.1% under setting [7]; 64.3% under setting [8]; 42.8% under setting [9]; 34.9% (second compound 0.1 µM, first compound 0.949 µM); 23% (second compound 0.1 µM, first compound 3 µM). Also, the viability, T/C by setting is: under setting [10], 90%; under setting [11], 98.7%; under setting [12], 62.1%; under setting [13], 46.3%; (second compound 0.316 µM, first compound 0.949 µM) 33.7%; (second compound 0.316 µM, first compound 3 µM) 25.8%. For the same compound, the viability, T/C was 82.3% under setting [14]; 79% under setting [15]; 57.2% under setting [16]; 41.7% under setting [17]; 28.6% (second compound 1 µM, first compound 0.949 µM); 22.3% (second compound 1 µM, first compound 3 µM). The viability, T/C runs as follows: under setting [18], 80%; under setting [19], 86.1%; under setting [20], 61.8%; under setting [21], 37.5%; (second compound 3.16 µM, first compound 0.949 µM) 29.3%; (second compound 3.16 µM, first compound 3 µM) 22.1%. Besides, the viability, T/C by setting is: under setting [22], 76.6%; under setting [23], 60.4%; under setting [24], 46.5%; under setting [25], 33.7%; (second compound 10 µM, first compound 0.949 µM) 29%; (second compound 10 µM, first compound 3 µM) 22.3%.
`CC1COCCN1c1cc(-c2ccnn2C)c2ccnc(-c3ccn[nH]3)c2n1` (stereo not given) + NC1CCC(NC2CC2c2ccccc2)CC1: the IC50 runs as follows: under setting [1], 15.2 nM; under setting [2], 16.2 nM; under setting [3], 16 nM; under setting [4], 12.2 nM; under setting [5], 4.61 nM. Further, the viability, T/C runs as follows: (second compound 0.1 µM, first compound 0.00316 µM) 81.7%; (second compound 0.1 µM, first compound 0.01 µM) 54.2%; (second compound 0.1 µM, first compound 0.0316 µM) 42.3%; (second compound 0.1 µM, first compound 0.1 µM) 22.9%; (second compound 0.1 µM, first compound 0.316 µM) 15.6%; (second compound 0.1 µM, first compound 1 µM) 11.2%. Moreover, the viability, T/C reads like this: (second compound 0.316 µM, first compound 0.00316 µM) 68.7%; (second compound 0.316 µM, first compound 0.01 µM) 58.5%; (second compound 0.316 µM, first compound 0.0316 µM) 38.2%; (second compound 0.316 µM, first compound 0.1 µM) 23%; (second compound 0.316 µM, first compound 0.316 µM) 16.5%; (second compound 0.316 µM, first compound 1 µM) 13.8%. Also, the viability, T/C (second compound 1 µM, first compound 0.00316 µM) was 72.8%; the viability, T/C (second compound 1 µM, first compound 0.01 µM) is 59%; the viability, T/C (second compound 1 µM, first compound 0.0316 µM) is 37.3%; the viability, T/C (second compound 1 µM, first compound 0.1 µM) was 23.2%; the viability, T/C (second compound 1 µM, first compound 0.316 µM) was 16.4%; the viability, T/C (second compound 1 µM, first compound 1 µM) is 9.5%. Moreover, the viability, T/C is 60.4% (second compound 3.16 µM, first compound 0.00316 µM); 52.7% (second compound 3.16 µM, first compound 0.01 µM); 38.9% (second compound 3.16 µM, first compound 0.0316 µM); 27.6% (second compound 3.16 µM, first compound 0.1 µM); 18.4% (second compound 3.16 µM, first compound 0.316 µM); 14.9% (second compound 3.16 µM, first compound 1 µM). For the same compound, the viability, T/C reads like this: (second compound 10 µM, first compound 0.00316 µM) 52.9%; (second compound 10 µM, first compound 0.01 µM) 44%; (second compound 10 µM, first compound 0.0316 µM) 30.1%; (second compound 10 µM, first compound 0.1 µM) 19%; (second compound 10 µM, first compound 0.316 µM) 17.4%; (second compound 10 µM, first compound 1 µM) 13.4%.
`COc1cc(C2c3cc4c(cc3C(OC3OC5COC(C)OC5C(O)C3O)C3COC(=O)C23)OCO4)cc(OC)c1O` (stereo not given): the viability, T/C is 79% and 92.3% (compound 0.00949 µM); 76.9% and 70.8% (compound 0.03 µM); 48.1% and 27.1% (compound 0.0949 µM); 15.1% and 15% (compound 0.3 µM); 14.4% and 10% (compound 0.949 µM); 10.4% and 4.22% (compound 3 µM). The IC50 (curve of compound) is 87.8 nM and 52.4 nM.
